According to publication PMC13267069 (npj Drug Discovery, 2025):

Molecular target: CFTR (Homo sapiens, UniProt P13569, G551D)
Assay: Ussing chamber short-circuit current, FRT cells
Type: cell-based

Sequence of CFTR (P13569 whole entry G551D): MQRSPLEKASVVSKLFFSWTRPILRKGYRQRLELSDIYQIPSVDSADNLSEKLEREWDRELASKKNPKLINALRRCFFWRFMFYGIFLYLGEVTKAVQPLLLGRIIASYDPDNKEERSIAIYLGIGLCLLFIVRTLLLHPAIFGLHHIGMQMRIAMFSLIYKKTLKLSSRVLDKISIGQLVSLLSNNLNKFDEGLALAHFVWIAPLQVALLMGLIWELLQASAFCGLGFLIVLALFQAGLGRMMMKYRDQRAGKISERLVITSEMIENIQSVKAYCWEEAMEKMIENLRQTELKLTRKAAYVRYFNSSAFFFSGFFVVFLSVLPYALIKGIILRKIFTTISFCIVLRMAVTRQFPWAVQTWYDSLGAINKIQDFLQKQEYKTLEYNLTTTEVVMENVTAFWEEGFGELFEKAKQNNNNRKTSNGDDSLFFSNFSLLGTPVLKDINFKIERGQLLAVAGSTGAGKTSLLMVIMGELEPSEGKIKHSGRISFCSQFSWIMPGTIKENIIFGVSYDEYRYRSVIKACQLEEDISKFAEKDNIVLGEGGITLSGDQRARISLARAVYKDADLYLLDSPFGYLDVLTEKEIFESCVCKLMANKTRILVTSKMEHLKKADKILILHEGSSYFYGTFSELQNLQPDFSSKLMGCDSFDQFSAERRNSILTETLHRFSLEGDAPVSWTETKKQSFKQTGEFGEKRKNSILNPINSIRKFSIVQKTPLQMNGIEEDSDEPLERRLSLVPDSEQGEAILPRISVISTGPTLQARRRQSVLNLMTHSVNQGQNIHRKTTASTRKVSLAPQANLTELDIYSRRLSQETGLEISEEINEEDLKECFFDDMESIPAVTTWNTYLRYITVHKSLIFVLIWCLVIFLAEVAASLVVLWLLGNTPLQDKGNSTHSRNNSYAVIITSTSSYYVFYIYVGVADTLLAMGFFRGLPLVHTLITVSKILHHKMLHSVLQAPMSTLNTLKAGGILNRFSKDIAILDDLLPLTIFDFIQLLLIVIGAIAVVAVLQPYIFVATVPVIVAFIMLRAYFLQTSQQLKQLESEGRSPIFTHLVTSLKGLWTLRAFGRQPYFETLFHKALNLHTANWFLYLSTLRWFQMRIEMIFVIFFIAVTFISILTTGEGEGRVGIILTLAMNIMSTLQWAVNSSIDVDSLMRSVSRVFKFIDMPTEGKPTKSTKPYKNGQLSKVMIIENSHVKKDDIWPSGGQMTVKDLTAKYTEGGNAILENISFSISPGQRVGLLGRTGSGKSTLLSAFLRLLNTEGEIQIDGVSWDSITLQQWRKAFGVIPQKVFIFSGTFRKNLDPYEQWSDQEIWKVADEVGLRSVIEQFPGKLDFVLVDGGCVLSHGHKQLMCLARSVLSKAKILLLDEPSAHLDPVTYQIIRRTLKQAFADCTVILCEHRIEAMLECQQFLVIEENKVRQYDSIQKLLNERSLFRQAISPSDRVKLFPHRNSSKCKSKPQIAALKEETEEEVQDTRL

## CC(C)(C)c1cc(C(C)(C)C)c(NC(=O)c2c[nH]c3ccccc3c2=O)cc1O [VX-770]
  Ussing chamber short-circuit current, FRT cells: In terms of efficacy as a single agent, uHTS159 is roughly equivalent to VX-770.
